Results reported in patent US9802942B2, “Substituted 4-methyl-pyrrolo[1,2-A]pyrimidine-8-carboxamide compounds and uses thereof for modulating glucocerebrosidase activity” (Northwestern University, priority 2015, dated 2017).

Experiments:
[1] = target: T1, glucocerebrosidase (GCase), recombinant wt. enzyme velaglucerase alfa (Homo sapiens, UniProt P04062); assay: Glucocerebrosidase activity assay with blue substrate (4MU-Glc); type: biochemical; conditions: 4MU-Glc substrate enzyme activity assay
T1 construct: purchased Shire Human Genetic Therapies, Inc. Vpriv
T1 sequence (P04062 40-536): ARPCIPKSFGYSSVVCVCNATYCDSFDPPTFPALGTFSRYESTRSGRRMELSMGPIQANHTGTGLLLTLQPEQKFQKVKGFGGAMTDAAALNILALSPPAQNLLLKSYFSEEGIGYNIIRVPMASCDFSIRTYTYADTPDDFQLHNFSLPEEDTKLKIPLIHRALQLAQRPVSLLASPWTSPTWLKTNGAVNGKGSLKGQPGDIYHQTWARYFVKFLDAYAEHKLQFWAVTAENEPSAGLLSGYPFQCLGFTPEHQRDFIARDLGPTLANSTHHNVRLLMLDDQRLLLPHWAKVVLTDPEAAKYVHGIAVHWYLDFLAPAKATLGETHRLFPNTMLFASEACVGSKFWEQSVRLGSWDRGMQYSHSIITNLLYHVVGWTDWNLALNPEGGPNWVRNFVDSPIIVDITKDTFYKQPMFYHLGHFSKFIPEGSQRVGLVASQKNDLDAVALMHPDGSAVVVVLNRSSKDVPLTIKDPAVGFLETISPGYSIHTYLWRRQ
Protocol: (§1) The compounds in DMSO solution 0.5 μL/well were transferred to a black 96-well plate (the final titration was 24 nM to 50 μM, 12 concentrations, 2 times dilution). 33.5 μL enzyme solution (7.5 nM final concentration) was transferred to the wells. After 5 min of incubation at room temperature, the enzyme reaction was initiated by the addition of 33 μL/well blue substrate or 66.5 μL/well red substrate. Final concentrations of the blue substrate (4MU-Glc) and red substrate (Res-Glc) were 1.5 mM and 30 μM, respectively. The red substrate reaction was measured in the Biotek Synergy H1 multi-mode plate reader with Ex=573 nm and Em=610 nm at 37° C. every 20 sec for 30 min. The blue substrate reaction was terminated by the addition of 33 μL/well stop solution (1 M NaOH and 1 M glycine mixture, pH 10) after 30 min of incubation at 37° C. The fluorescence was then measured in the plate reader at Ex=365 nm and Em=440 nm.
The recombinant wt. enzyme velaglucerase alfa (Vpriv®, Shire Human Genetic Therapies, Inc.) was obtained from residual solution after clinical infusions. The GCase activity assay buffer was composed of 50 mM citric acid, 176 mM K2HPO4, and 0.01% Tween-20 at pH 5.9. A solution of 1 M sodium hydroxide and 1 M glycine was used as the stop solution for the 4MU-β-glc substrate assay.
The compounds in DMSO solution 0.5 μL/well was transferred to a black 96-well plate (the final titration was 24 nM to 50 μM, 12 concentrations). 33.5 μL enzyme solution (7.5 nM final concentration) was transferred to the wells. After 5 min of incubation at room temperature, the enzyme reaction was initiated by the addition of 33 μL/well 4MU-Glc substrate or 66.5 μL/well red substrate. Final concentrations of the 4MU-Glc substrate and Res-Glc substrate were 1.5 mM and 30 μM, respectively. The red substrate reaction was measured in the Biotek Synergy H1 multi-mode plate reader with Ex=573 nm and Em=610 nm at 37° C. in every 20 seconds for 30 min. The 4MU-Glc substrate reaction was terminated by the addition of 33 μL/well stop solution (1 M NaOH and 1 M glycine mixture, pH 10) after 30 min of incubation at 37° C. The fluorescence was then measured in the plate reader with Ex=365 nm and Em=440 nm.

[2] = target: T1, glucocerebrosidase (GCase), recombinant wt. enzyme velaglucerase alfa; assay: Glucocerebrosidase activity assay with red substrate (Res-β-glc); type: biochemical; conditions: at 50 μM
Protocol: as §1, with “nm. […]” for “nm.”
The compounds in DMSO solution 0.5 μL/well was transferred to a black 96-well plate (the final titration was 24 nM to 50 μM, 12 concentrations). […] The red substrate reaction was measured in the Biotek Synergy H1 multi-mode plate reader with Ex=573 nm and Em=610 nm at 37° C. in every 20 seconds for 30 min. […] The fluorescence was then measured in the plate reader with Ex=365 nm and Em=440 nm.

GCase = target: T2, GCase (Homo sapiens, UniProt P04062); assay: Binding affinity test by FP assay (competition with probe 3); conditions: in words; 19.5 nM to 10 μM
T2 construct: purchased Shire Human Genetic Therapies, Inc. Vpriv
T2 sequence (P04062 40-536): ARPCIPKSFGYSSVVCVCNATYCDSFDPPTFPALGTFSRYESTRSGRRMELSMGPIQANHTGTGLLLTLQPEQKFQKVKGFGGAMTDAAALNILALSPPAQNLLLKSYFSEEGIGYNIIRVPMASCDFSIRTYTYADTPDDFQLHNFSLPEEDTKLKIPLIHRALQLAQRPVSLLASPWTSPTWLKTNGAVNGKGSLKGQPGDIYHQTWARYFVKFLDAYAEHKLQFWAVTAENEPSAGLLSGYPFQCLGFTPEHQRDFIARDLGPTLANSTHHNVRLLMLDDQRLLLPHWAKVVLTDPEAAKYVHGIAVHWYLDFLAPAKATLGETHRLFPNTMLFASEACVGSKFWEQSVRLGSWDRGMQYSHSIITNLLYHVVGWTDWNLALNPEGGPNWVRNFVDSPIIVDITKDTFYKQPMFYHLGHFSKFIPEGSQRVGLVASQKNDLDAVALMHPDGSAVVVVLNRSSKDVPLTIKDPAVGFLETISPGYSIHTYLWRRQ
Protocol: The enzyme in GCase enzyme activity buffer (25 μL/well) was added to a 384-well black plate. The fluorescent probe 3 (25 nL/well, 50 nM final concentration) was transferred to a 384-well black plate using a Labcyte Echo 550 Liquid Handler system. Compounds in DMSO stock solution (50 nL) were transferred to the plate. The plate was shaken at room temperature in dark for 20 min. The final concentration was 19.5 nM to […], 10 concentrations, 2 times dilution. The fluorescence polarization was measured in a Molecular Devices Analyst GT with Ex=535 nm and Em=580 nm, G Factor=1.05.
The enzyme in GCase enzyme activity buffer (25 μL/well) was added to a 384-wells black plate, The fluorescent probe 3 (25 nL/well, 50 nM final concentration) was transferred to a 384-wells black plate by using Labcyte Echo 550 Liquid Handler system. Compounds 1, and 2 in DMSO stock solution (50 nL) (the final titration was 19.5 nM to 10 μM, 10 concentrations) were transferred to the plate. The plate was shook at room temperature in dark for 20 min. The fluorescence polarization was measured in Molecular Devices Analyst GT with Ex=535 nm and Em=580 nm, G Factor=1.05.

maximum activity / activation activity [1]: around 14 folds
AC50 ([1]; read-out: AC50): 6.31 µM
activation of Res-β-glc substrate hydrolysis [2]: 10 folds
activity in FP competition with probe 3 (GCase): much higher activity
Compound: Cc1cc(C)n2ccc(C(=O)Nc3ccc(-c4cn(CCOCCOCCN)nn4)cc3)c2n1 [No. 3, N-(4-(1-(2-(2-(2-aminoethoxy)ethoxy)ethyl)-1H-1,2,3-triazol-4-yl)phenyl)-2,4-dimethylpyrrolo[1,2-a]pyrimidine-8-carboxamide]
